Laboratory results published in PubChem BioAssay (NCI).
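Results reflect a 48-hour exposure of cells in 96-well plates to compound at five concentrations. At the TGI there is no net growth.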

Experiments:
Assay in all cases: inhibition of tumour cell growth, NCI panel, 48 h
OVCAR-5 ovarian = system: OVCAR-5 ovarian
HT29 colon = system: HT29 colon
LXFL 529 NSCLC = system: LXFL 529 NSCLC
CCRF-CEM leukemia = system: CCRF-CEM leukemia
SNB-78 CNS = system: SNB-78 CNS
K-562 leukemia = system: K-562 leukemia
DMS 114 small cell lung = system: DMS 114 small cell lung
M19-MEL melanoma = system: M19-MEL melanoma
NCI-H522 lung = system: NCI-H522 lung
MALME-3M melanoma = system: MALME-3M melanoma
HCT-15 colon = system: HCT-15 colon
SN12C renal = system: SN12C renal
IGROV1 ovarian = system: IGROV1 ovarian
SK-MEL-5 melanoma = system: SK-MEL-5 melanoma
UO-31 renal = system: UO-31 renal
HCT-116 colon = system: HCT-116 colon
U251 CNS = system: U251 CNS
SK-MEL-2 melanoma = system: SK-MEL-2 melanoma
A498 renal = system: A498 renal
RPMI-8226 leukemia = system: RPMI-8226 leukemia
786-0 renal = system: 786-0 renal
CAKI-1 renal = system: CAKI-1 renal
SK-MEL-28 melanoma = system: SK-MEL-28 melanoma
COLO 205 colon = system: COLO 205 colon
OVCAR-3 ovarian = system: OVCAR-3 ovarian
SF-268 CNS = system: SF-268 CNS
NCI-H460 lung = system: NCI-H460 lung
SR leukemia = system: SR leukemia
HOP-62 NSCLC = system: HOP-62 NSCLC
DMS 273 small cell lung = system: DMS 273 small cell lung
SF-295 CNS = system: SF-295 CNS
LOX IMVI melanoma = system: LOX IMVI melanoma
OVCAR-4 ovarian = system: OVCAR-4 ovarian
HOP-18 NSCLC = system: HOP-18 NSCLC
NCI-H226 lung = system: NCI-H226 lung
SF-539 CNS = system: SF-539 CNS
M14 melanoma = system: M14 melanoma
UACC-257 melanoma = system: UACC-257 melanoma
ACHN renal = system: ACHN renal
TK-10 renal = system: TK-10 renal
SK-OV-3 ovarian = system: SK-OV-3 ovarian
HL-60(TB) leukemia = system: HL-60(TB) leukemia
KM20L2 colon = system: KM20L2 colon
OVCAR-8 ovarian = system: OVCAR-8 ovarian
SW-620 colon = system: SW-620 colon
SNB-75 CNS = system: SNB-75 CNS
KM12 colon = system: KM12 colon
EKVX NSCLC = system: EKVX NSCLC
HOP-92 NSCLC = system: HOP-92 NSCLC
RXF 393 renal = system: RXF 393 renal
UACC-62 melanoma = system: UACC-62 melanoma
A549 NSCLC = system: A549 NSCLC
HCC-2998 colon = system: HCC-2998 colon
DLD-1 colon = system: DLD-1 colon
MOLT-4 leukemia = system: MOLT-4 leukemia
SNB-19 CNS = system: SNB-19 CNS
NCI-H23 lung = system: NCI-H23 lung

O=C(Nc1ccn(CCOC(=O)c2ccccc2)c(=O)n1)c1ccccc1
TGI (OVCAR-5 ovarian): > 100 µM
TGI (HT29 colon): > 100 µM
TGI (LXFL 529 NSCLC): > 100 µM
TGI (CCRF-CEM leukemia): > 100 µM
TGI (SNB-78 CNS): > 100 µM
TGI (K-562 leukemia): > 100 µM
TGI (DMS 114 small cell lung): > 100 µM
TGI (M19-MEL melanoma): > 100 µM
TGI (NCI-H522 lung): > 100 µM
TGI (MALME-3M melanoma): > 100 µM
TGI (HCT-15 colon): > 100 µM
TGI (SN12C renal): > 100 µM
TGI (IGROV1 ovarian): > 100 µM
TGI (SK-MEL-5 melanoma): > 100 µM
TGI (UO-31 renal): > 100 µM
TGI (HCT-116 colon): > 100 µM
TGI (U251 CNS): > 100 µM
TGI (SK-MEL-2 melanoma): > 100 µM
TGI (A498 renal): > 100 µM
TGI (RPMI-8226 leukemia): > 100 µM
TGI (786-0 renal): > 100 µM
TGI (CAKI-1 renal): > 100 µM
TGI (SK-MEL-28 melanoma): > 100 µM
TGI (COLO 205 colon): > 100 µM
TGI (OVCAR-3 ovarian): > 100 µM
TGI (SF-268 CNS): > 100 µM
TGI (NCI-H460 lung): > 100 µM
TGI (SR leukemia): > 100 µM
TGI (HOP-62 NSCLC): > 100 µM
TGI (DMS 273 small cell lung): > 100 µM
TGI (SF-295 CNS): > 100 µM
TGI (LOX IMVI melanoma): > 100 µM
TGI (OVCAR-4 ovarian): > 100 µM
TGI (HOP-18 NSCLC): > 100 µM
TGI (NCI-H226 lung): > 100 µM
TGI (SF-539 CNS): > 100 µM
TGI (M14 melanoma): > 100 µM
TGI (UACC-257 melanoma): > 100 µM
TGI (ACHN renal): > 100 µM
TGI (TK-10 renal): > 100 µM
TGI (SK-OV-3 ovarian): > 100 µM
TGI (HL-60(TB) leukemia): > 100 µM
TGI (KM20L2 colon): > 100 µM
TGI (OVCAR-8 ovarian): > 100 µM
TGI (SW-620 colon): > 100 µM
TGI (SNB-75 CNS): > 100 µM
TGI (KM12 colon): > 100 µM
TGI (EKVX NSCLC): > 100 µM
TGI (HOP-92 NSCLC): > 100 µM
TGI (RXF 393 renal): > 100 µM
TGI (UACC-62 melanoma): > 100 µM
TGI (A549 NSCLC): > 100 µM

COc1ccc(CC#N)c(OCc2ccccc2)c1
TGI (LXFL 529 NSCLC): 67 µM
TGI (CCRF-CEM leukemia): > 100 µM
TGI (HCC-2998 colon): > 100 µM
TGI (DLD-1 colon): 85 µM
TGI (K-562 leukemia): > 100 µM
TGI (DMS 114 small cell lung): > 100 µM
TGI (M19-MEL melanoma): > 100 µM
TGI (NCI-H522 lung): > 100 µM
TGI (MALME-3M melanoma): 79 µM
TGI (SN12C renal): > 100 µM
TGI (IGROV1 ovarian): > 100 µM
TGI (SK-MEL-5 melanoma): 50.6 µM
TGI (UO-31 renal): > 100 µM
TGI (HCT-116 colon): > 100 µM
TGI (MOLT-4 leukemia): > 100 µM
TGI (A498 renal): 59.4 µM
TGI (RPMI-8226 leukemia): > 100 µM
TGI (786-0 renal): > 100 µM
TGI (CAKI-1 renal): > 100 µM
TGI (SK-MEL-28 melanoma): 84.6 µM
TGI (COLO 205 colon): > 100 µM
TGI (OVCAR-3 ovarian): > 100 µM
TGI (SF-268 CNS): > 100 µM
TGI (SNB-19 CNS): > 100 µM
TGI (NCI-H460 lung): > 100 µM
TGI (SR leukemia): > 100 µM
TGI (HOP-62 NSCLC): > 100 µM
TGI (DMS 273 small cell lung): > 100 µM
TGI (SF-295 CNS): > 100 µM
TGI (LOX IMVI melanoma): > 100 µM
TGI (OVCAR-4 ovarian): > 100 µM
TGI (HOP-18 NSCLC): 79.3 µM
TGI (NCI-H226 lung): 66 µM
TGI (SF-539 CNS): > 100 µM
TGI (NCI-H23 lung): > 100 µM
TGI (M14 melanoma): > 100 µM
TGI (UACC-257 melanoma): > 100 µM
TGI (ACHN renal): > 100 µM
TGI (KM20L2 colon): > 100 µM
TGI (OVCAR-8 ovarian): > 100 µM
TGI (SW-620 colon): > 100 µM
TGI (KM12 colon): > 100 µM
TGI (EKVX NSCLC): > 100 µM
TGI (UACC-62 melanoma): > 100 µM
TGI (A549 NSCLC): > 100 µM

COc1ccc(/C=C/C(=O)c2sc(NC(=S)NC(=O)c3ccccc3F)nc2C)cc1OC
TGI (OVCAR-5 ovarian): > 100 µM
TGI (CCRF-CEM leukemia): > 100 µM
TGI (HCC-2998 colon): > 100 µM
TGI (SNB-78 CNS): > 100 µM
TGI (DLD-1 colon): > 100 µM
TGI (K-562 leukemia): > 100 µM
TGI (DMS 114 small cell lung): > 100 µM
TGI (M19-MEL melanoma): > 100 µM
TGI (NCI-H522 lung): 63.9 µM
TGI (MALME-3M melanoma): > 100 µM
TGI (HCT-15 colon): > 100 µM
TGI (SN12C renal): > 100 µM
TGI (IGROV1 ovarian): > 100 µM
TGI (SK-MEL-5 melanoma): > 100 µM
TGI (UO-31 renal): > 100 µM
TGI (U251 CNS): > 100 µM
TGI (SK-MEL-2 melanoma): > 100 µM
TGI (MOLT-4 leukemia): > 100 µM
TGI (A498 renal): > 100 µM
TGI (RPMI-8226 leukemia): > 100 µM
TGI (786-0 renal): > 100 µM
TGI (CAKI-1 renal): > 100 µM
TGI (SK-MEL-28 melanoma): > 100 µM
TGI (COLO 205 colon): > 100 µM
TGI (OVCAR-3 ovarian): > 100 µM
TGI (SF-268 CNS): > 100 µM
TGI (SNB-19 CNS): > 100 µM
TGI (NCI-H460 lung): > 100 µM
TGI (HOP-62 NSCLC): > 100 µM
TGI (DMS 273 small cell lung): > 100 µM
TGI (SF-295 CNS): > 100 µM
TGI (LOX IMVI melanoma): > 100 µM
TGI (HOP-18 NSCLC): > 100 µM
TGI (SF-539 CNS): > 100 µM
TGI (NCI-H23 lung): > 100 µM
TGI (ACHN renal): > 100 µM
TGI (TK-10 renal): > 100 µM
TGI (SK-OV-3 ovarian): > 100 µM
TGI (HL-60(TB) leukemia): > 100 µM
TGI (KM20L2 colon): > 100 µM
TGI (OVCAR-8 ovarian): > 100 µM
TGI (SW-620 colon): > 100 µM
TGI (SNB-75 CNS): > 100 µM
TGI (KM12 colon): > 100 µM
TGI (EKVX NSCLC): > 100 µM
TGI (HOP-92 NSCLC): > 100 µM
TGI (RXF 393 renal): > 100 µM
TGI (UACC-62 melanoma): > 100 µM
TGI (A549 NSCLC): > 100 µM
